One assay deals with Procalcitonin. The experiment in a line: Procalcitonin in serum (ELISA), chronic zymosan peritonitis. Type of assay: in vivo, mouse. Particulars: 2 mg/kg. Here is the method:
(§1) Peritoneal inflammation was induced by Zymosan A (Sigma Chemical) (Masashi et al. Zymosan, but Not Lipopolysaccharide, Triggers Severe and Progressive Peritoneal Injury Accompanied by complement Activation in a Rat Peritonitis Model) was prepared freshly in sterile, 0.9% w/v saline, and 0.5 ml was injected i.p. from day 0 to Day 5. The lymphocyte population in the peripheral blood was determined with a flow cytometer. Cells were phenotyped by flow cytometry with the following primary antibodies: CD4 (FITC) and CD8 (PE). Cells were gated broadly on all live lymphocyte cells, with only debris and multiple cell clusters being excluded. Analysis of mean fluorescence intensity was done and percentage cell population was evaluated. The test drugs were administered for 30 days after the induction of peritonitis. On 36th day the peritoneal cavity was lavaged with 1.5 ml saline, and after a 30-s gentle manual massage, 0.5 ml exudate was retrieved, centrifuged at 3000 g for 3 min, and frozen at […] prior to cytokine and chemotactic-factor assessment.
Procalcitonin is a precursor for calcitonin, a peptide hormone involved in calcium homeostasis. In response to pro-inflammatory stimulus of bacterial origin, the procalcitonin level rises. The blood was collected from retro-orbital plexus from the animals of all groups. The blood was allowed to stand for 2 hrs without addition of anti-coagulant. […]
A general note: ELISA stands for enzyme-linked immunosorbent assay.

A further assay concerns IL-1β. The assay can be described thus: Intracellular IL-1β estimation in LPS activated murine neutrophils (flow cytometry). Conditions: 5 μg/ml, LPS 1 μg/ml, 3 h, ↑ upregulation. Type of assay: cell-based. The method, then: Flowcytometric studies were carried out to determine the anti-inflammatory effect of active constituents of Withania somnifera extract on TNF-α and IL-1β cytokine expression in LPS activated murine neutrophils.
TNF-α and Interleukin 1 beta (IL-1β) cytokines play a major role in the pathogenesis of septic shock induced by LPS (Lipopolysaccharide) endotoxin injection. LPS is an important triggering factor for in vivo systemic inflammatory response. LPS activates neutrophils via engagement of TLR4 (Toll-like receptor 4), resulting in the induction of a characteristic proinflammatory phenotype and prolongation of cell lifespan. In brief, neutrophils extraction was performed by taking murine blood and centrifuging it at 250 g for 20 min. Middle layer was taken and layered with histopaque and incubated for 10 min. The samples were centrifuged at 700 g, the upper layer was taken and Facs Lysing solution added for the lysis of any traces of RBC. The samples were washed with PBS (200 g) for 10 min. Neutrophils were stimulated with. LPS (1 μg/ml) and incubated with test samples for 3 h, in CO2 incubator. […] A fluorescence trigger was set on the […] parameter of the gated neutrophil populations (10,000 events). Fluorescence compensation, data analysis, and data presentation was performed using Cell Quest Pro software (Beckton—Dickinson Biosciences, CA, USA). […]

The subject of the next assay is Myeloperoxidase (MPO). The experiment in a line: Myeloperoxidase in peritoneal exudate (ELISA), chronic zymosan peritonitis. Type of assay: in vivo, mouse. Particulars: 2 mg/kg, day 36. Here is the method:
as §1
Circulating toxins can activate neutrophils or stimulate monocytes to release mediators contributing to the development of endotoxic shock. […] The protein concentrations were carried out by means of colorimetric measurement at 450 nm on an ELISA plate reader by interpolation from a standard curve. […]

The next assay deals with E. Coli (Gram-negative). The assay can be described thus: Bacterial translocation from the gut into organs: E. coli. Type of assay: in vivo. Particulars: Withanone 2 mg/kg; positive/6 mice. The method, then:
as §1
Intestine serves as a barrier in preventing gut bacteria and/or endotoxin from spreading to organs and tissues. It is also known that bacterial translocation occurs in critically ill or immunocompromised patients, and the physical disruption of mucosal barrier in vivo rodent models seem to be a key factor Tor translocation (Deitch et al. Effect of hemorrhagic shock on bacterial translocation, intestinal morphology, and intestinal permeability in conventional and antibiotic-decontaminated rats; Critical Care Medicine; 1990 18(5)). Bacterial translocation from the gut into the peritoneal cavity and organs was analyzed. The mesenteric lymph nodes, liver, and spleen of mice, study group of 30, were removed using sterile instruments. The organs were then homogenized in 1 ml of sterile cooked meat broth and 50 μl of organ homogenate was spread on blood agar plates to detect aerobic bacteria and Eosin Methylene blue agar plates to detect specially for E. coli. These plates were then incubated at 37° C. for 2 days. […]

The structures appear in SMILES notation.

Turning to `CC1=C(C)C(=O)O[C@@H]([C@@H](C)[C@@]2(O)CC[C@H]3[C@@H]4[C@@H]5O[C@@H]5[C@@]5(O)CC=CC(=O)[C@]5(C)[C@H]4CC[C@@]32C)C1` [Withanone], the “Decrease of expression level of procalcitonin compared to the Zymosan control” value in the assay on Procalcitonin is reported as about 60%. Moreover, the “Percentage IL-1β inhibition compared to LPS control” value in the assay on IL-1β is 32%. Further, the “Decrease of expression levels of MPO compared to the Zymosan control” value with Myeloperoxidase (MPO) is given as “at least 50%”. Moreover, in the assay with E. Coli (Gram-negative), the “Bacterial translocation, Liver, E. coli” value is 1/6; the “Bacterial translocation, Mesenteric Lymph Nodes, E. coli” value is reported as 2/6; the “Bacterial translocation, Spleen, E. coli” value is reported as 1/6.
